pEC50, pIC50: −log10 of the molar value.
Assays:
Test in all cases: Eurofins DiscoverX SAFETYscan off-target panel
Assay type in all cases: cell-based
OPRM1 = OPRM1 (Homo sapiens, UniProt P35372)
OPRD1 = OPRD1 (Homo sapiens, UniProt P41143)
HTR2A = HTR2A (Homo sapiens, UniProt P28223)
androgen receptor (AR) = molecular target: T1, androgen receptor (AR) (Homo sapiens, UniProt P10275)
T1 sequence (P10275 1-920): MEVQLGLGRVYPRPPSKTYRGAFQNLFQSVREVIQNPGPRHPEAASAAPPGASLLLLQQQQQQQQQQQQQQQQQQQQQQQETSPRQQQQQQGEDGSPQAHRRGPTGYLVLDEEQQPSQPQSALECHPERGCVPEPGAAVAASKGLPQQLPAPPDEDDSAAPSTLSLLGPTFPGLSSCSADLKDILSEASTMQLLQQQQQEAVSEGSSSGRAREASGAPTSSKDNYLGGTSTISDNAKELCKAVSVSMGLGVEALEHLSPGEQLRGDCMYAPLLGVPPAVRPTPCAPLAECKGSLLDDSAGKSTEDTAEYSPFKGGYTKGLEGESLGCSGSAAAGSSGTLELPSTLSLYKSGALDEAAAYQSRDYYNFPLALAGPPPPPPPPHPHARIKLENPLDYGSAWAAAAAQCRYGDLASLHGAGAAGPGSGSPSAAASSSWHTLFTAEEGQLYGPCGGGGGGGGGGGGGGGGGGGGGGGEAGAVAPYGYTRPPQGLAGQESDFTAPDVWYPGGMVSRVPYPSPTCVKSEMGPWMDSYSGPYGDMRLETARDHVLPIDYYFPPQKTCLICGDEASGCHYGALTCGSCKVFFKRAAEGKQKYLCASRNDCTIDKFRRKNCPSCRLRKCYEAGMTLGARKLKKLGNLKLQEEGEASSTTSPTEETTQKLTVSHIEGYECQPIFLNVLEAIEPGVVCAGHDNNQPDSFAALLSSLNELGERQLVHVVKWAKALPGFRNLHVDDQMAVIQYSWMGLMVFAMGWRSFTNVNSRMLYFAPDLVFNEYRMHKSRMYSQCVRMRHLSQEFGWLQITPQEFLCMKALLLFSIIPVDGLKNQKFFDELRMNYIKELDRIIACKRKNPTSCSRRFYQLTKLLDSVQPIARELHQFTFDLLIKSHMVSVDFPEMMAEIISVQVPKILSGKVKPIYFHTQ

HTR1A = molecular target: T2, HTR1A (Homo sapiens, UniProt P08908)
T2 sequence (P08908 1-422): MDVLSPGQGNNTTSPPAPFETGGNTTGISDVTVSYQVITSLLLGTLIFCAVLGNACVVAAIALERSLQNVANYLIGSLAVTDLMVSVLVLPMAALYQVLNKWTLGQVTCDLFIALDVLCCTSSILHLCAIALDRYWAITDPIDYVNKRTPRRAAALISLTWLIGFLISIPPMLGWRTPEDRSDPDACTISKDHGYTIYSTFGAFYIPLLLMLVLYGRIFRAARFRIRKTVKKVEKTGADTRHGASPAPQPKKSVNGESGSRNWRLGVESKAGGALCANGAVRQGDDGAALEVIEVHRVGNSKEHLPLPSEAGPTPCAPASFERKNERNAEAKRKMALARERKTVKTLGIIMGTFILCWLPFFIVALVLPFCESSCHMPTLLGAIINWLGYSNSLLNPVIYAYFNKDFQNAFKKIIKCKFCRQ

ADRA2A = molecular target: T3, ADRA2A (Homo sapiens, UniProt P08913)
T3 sequence (P08913 1-465): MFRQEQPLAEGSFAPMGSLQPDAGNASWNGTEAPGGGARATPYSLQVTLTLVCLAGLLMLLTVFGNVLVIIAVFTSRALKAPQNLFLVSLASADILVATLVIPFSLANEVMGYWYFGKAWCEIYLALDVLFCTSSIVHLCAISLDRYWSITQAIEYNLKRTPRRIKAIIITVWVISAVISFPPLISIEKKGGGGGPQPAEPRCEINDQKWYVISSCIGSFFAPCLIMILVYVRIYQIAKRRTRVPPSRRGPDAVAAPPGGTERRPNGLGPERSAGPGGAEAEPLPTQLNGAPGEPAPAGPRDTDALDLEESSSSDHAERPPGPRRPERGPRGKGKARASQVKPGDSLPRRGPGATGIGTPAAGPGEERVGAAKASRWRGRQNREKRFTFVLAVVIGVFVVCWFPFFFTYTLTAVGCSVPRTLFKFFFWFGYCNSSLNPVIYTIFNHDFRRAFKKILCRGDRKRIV

OPRM1, sequence (P35372 whole entry): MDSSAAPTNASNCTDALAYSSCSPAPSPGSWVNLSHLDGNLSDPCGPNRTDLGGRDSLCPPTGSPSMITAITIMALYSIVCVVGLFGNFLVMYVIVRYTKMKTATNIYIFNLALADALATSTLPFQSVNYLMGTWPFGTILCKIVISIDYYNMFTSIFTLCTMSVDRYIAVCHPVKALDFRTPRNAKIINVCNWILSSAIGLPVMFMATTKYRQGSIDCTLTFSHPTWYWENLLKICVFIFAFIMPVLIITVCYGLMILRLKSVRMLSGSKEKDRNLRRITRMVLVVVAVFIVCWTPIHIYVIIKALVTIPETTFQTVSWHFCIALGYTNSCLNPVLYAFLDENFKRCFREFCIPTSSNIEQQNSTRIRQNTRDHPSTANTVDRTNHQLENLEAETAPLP
OPRD1, sequence (P41143 whole entry): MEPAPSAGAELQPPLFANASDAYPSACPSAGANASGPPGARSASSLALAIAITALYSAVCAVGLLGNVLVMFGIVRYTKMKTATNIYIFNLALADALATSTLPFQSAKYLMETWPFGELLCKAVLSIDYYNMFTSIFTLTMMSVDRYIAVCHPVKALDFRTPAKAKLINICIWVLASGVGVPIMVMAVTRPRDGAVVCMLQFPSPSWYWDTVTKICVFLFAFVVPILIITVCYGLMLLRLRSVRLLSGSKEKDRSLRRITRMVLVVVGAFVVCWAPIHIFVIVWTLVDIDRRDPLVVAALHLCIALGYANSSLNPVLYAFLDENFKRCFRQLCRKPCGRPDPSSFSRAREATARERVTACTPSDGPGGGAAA
HTR2A, sequence (P28223 whole entry): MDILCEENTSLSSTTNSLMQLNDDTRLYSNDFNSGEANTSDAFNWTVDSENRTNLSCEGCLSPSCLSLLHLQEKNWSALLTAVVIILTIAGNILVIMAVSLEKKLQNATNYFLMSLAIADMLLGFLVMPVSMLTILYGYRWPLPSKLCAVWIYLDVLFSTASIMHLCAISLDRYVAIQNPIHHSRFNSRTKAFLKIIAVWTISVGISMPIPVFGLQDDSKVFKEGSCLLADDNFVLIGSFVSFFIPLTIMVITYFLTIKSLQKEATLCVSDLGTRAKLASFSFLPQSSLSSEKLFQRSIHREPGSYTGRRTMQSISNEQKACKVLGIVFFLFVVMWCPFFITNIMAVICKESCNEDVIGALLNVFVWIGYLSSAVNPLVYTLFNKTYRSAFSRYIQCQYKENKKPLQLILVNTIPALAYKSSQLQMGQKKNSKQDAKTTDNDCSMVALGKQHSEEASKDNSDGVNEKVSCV

Structure (SMILES)	pIC50 (OPRM1)	pEC50 (OPRD1)	pIC50 (HTR2A)	pIC50 (androgen receptor (AR))	pIC50 (HTR1A)	pIC50 (ADRA2A)
CC(=O)c1ccc2c(c1)[C@@H]1C=CC[C@@H]1[C@H](c1cc3c(cc1Br)OCO3)N2 (racemic) [LNS8801, 1-[(3aS,4R,9bR)-4-(6-bromo-1,3-benzodioxol-5-yl)-3a,4,5,9b-tetrahydro-3H-cyclopenta[c]quinolin-8-yl] ethanone]	5.46	6.06	5.09			
CC(=O)c1ccc2c(c1)C1C=CCC1C(c1cc3c(cc1Br)OCO3)N2 (racemic) [LNS8812]				5.32	5.70	5.70

From paper PMC11969138, “LNS8801: An Enantiomerically Pure Agonist of the G Protein–Coupled Estrogen Receptor Suitable for Clinical Development” (Cancer Research Communications, 2025)
